From PMC7218274 (Antiviral Chemistry & Chemotherapy, 2020)

What was measured:
[1] = MTT cytotoxicity assay, MT-2 cells; format: cell-based, human; settings: human, MTT, mean ± 1 SD, read-out: CC50 (50% cytotoxicity concentration)
Protocol: (§1) MT-2 cells and A549 cells were mixed with HAdV-19, 2× 10^5 cells/mL with 10^4 TCID50/mL and 1× 10^5 cells/mL with 3 × 10^3 TCID50/mL, respectively, in plate wells in the presence or absence of various concentrations of the compounds (MOI: 0.035 for MT-2 cells and 0.021 for A549). The plates were incubated for five days. At the end of the incubation period, CPE was determined using the MTT assay, as described previously.[11],[12] Thus, 25 µl of the MTT solution (7.5 mg/ml) in phosphate-buffered saline (Wako, Japan) was added to each well of the plate. Then, the plate was incubated at 37°C for 2 h. After incubation, 150 µl of medium was removed with care in order not to draw cells. To solubilize the formazan crystals and neutralize the viral infectivity, 100 μl of acidified isopropanol (4 ml concentrated HCl per 1 l of isopropanol) containing 10% (v/v) Triton X-100 was added to each well. Formazan crystals were completely solubilized by pipetting up and down, the absorbance at 560 nm of the wells was read by microplate reader (GloMax, Promega, Japan). The 50% antiviral effective concentration (EC50) was defined as the drug concentration that protects 50% of virus-infected cells from virus-induced cell damage and/or death.[12] The cytotoxicity of each compound was measured in parallel using the MTT assay. The 50% cytotoxicity concentration (CC50) was defined as the drug concentration that reduces cell viability by 50%. Data shown represent mean EC50 and CC50values (±1 standard deviation) derived from the results of two to four independent experiments conducted in duplicate.

[2] = test system: MT-2 cells; experiment: MTT cytotoxicity assay, MT-2 cells; format: cell-based, human; settings: at a concentration of 100 µM
Protocol: as §1

[3] = test system: A549 cells; experiment: MTT cytotoxicity assay, A549 cells; format: cell-based, human; settings: at a concentration of 100 µM
Protocol: as §1

[4] = MTT cytotoxicity assay, A549 cells; format: cell-based, human; settings: human, MTT, mean ± 1 SD, read-out: CC50 (50% cytotoxicity concentration)
Protocol: as §1

[5] = test system: HAdV-19; experiment: MTT-based antiviral assay, HAdV-19-infected MT-2 cells; format: cell-based, Human adenovirus type 19; settings: for EC50: Human mastadenovirus D, MT2, 120 h, HAdV-19, five days, MTT, mean ± 1 SD, read-out: EC50 (50% antiviral effective concentration)
Protocol: as §1, with “The 50% antiviral effective concentration (EC50) was defined as the drug concentration that protects 50% of virus-infected cells from virus-induced cell damage and/or death.[12]” left out, “50%.” for “50%. Data shown represent mean EC50 and CC50values (±1 standard deviation) derived from the results of two to four independent experiments conducted in duplicate.”

[6] = test system: HAdV-19; experiment: MTT-based antiviral assay, HAdV-19-infected A549 cells; format: cell-based, Human adenovirus type 19; settings: for EC50: Human mastadenovirus D, 120 h, HAdV-19, five days, MTT, mean ± 1 SD, read-out: EC50 (50% antiviral effective concentration)
Protocol: as §1, with “The 50% antiviral effective concentration (EC50) was defined as the drug concentration that protects 50% of virus-infected cells from virus-induced cell damage and/or death.[12]” left out, “50%.” for “50%. Data shown represent mean EC50 and CC50values (±1 standard deviation) derived from the results of two to four independent experiments conducted in duplicate.”

SMILES	EC50 [6] [µM]	CC50 at 5 days [1] [µM]	tolerance by cells [2]	tolerance by cells [3]	CC50 at 5 days [4] [µM]	SI (selectivity index, ratio of CC50 and EC50) [5]	EC50 [5] [µM]	SI (selectivity index, ratio of CC50 and EC50) [6]	antiviral activity against HAdV-19 (in words) ([5]; MTT assay)
Nc1ccn(C[C@@H](CO)OCP(=O)(O)O)c(=O)n1 [CDV, (S)-1–(3-hydroxy-2-phosphonylmethoxypropyl)cytosine]	4.2 ± 1.1	> 100	tolerated	tolerated	> 100	>1.6	62 ± 26	>24	
Cc1cn([C@H]2C[C@H](F)[C@@H](CO)O2)c(=O)[nH]c1=O [FdT, 3′-deoxy-3′-fluorothymidine]	0.03 ± 0.01	36 ± 5			7.6 ± 4.2		1.8 ± 0.2		
Nc1nc(O)c2ncn(COC(CO)CO)c2n1 [GCV, ganciclovir]	54 ± 27	> 100	tolerated	tolerated	> 100	>1.7	60 ± 7	>1.9	

Second part, led by results:

EC50 [6] [µM]	SMILES	CC50 at 5 days [1] [µM]	tolerance by cells [2]	tolerance by cells [3]	CC50 at 5 days [4] [µM]	SI (selectivity index, ratio of CC50 and EC50) [5]	EC50 [5] [µM]	SI (selectivity index, ratio of CC50 and EC50) [6]	antiviral activity against HAdV-19 (in words) ([5]; MTT assay)
> 53	NC(=O)c1ncn([C@@H]2O[C@H](CO)[C@@H](O)[C@H]2O)n1 [RBV, ribavirin]	18 ± 1			53 ± 21		> 18		little antiviral activity
0.35 ± 0.04	Nc1ccn([C@H]2CC[C@@H](CO)O2)c(=O)n1 [ddC, 2′,3′-dideoxycytidine]	> 100	tolerated	tolerated	> 100	>38	2.6 ± 0.4	>286	
